Test results as given in patent US20110229571A1, “Pharmaceutical Compositions Comprising a Selective I1 Imidazoline Receptor Agonist and an Angiotensin II Receptor Blocker” (Abbott Products GmbH, priority 2003, published 2011).

Tests used:
Zucker rats = experiment: Oral glucose tolerance test in Zucker rats after 3 weeks of treatment; assay type: in vivo, rat
Method: The effect of a combined administration of Moxonidine as an example for a selective Imidazoline I1 receptor agonist and Eprosartan as an example for an Angiotensin II At1 receptor antagonist was analyzed by measuring their influence on plasma glucose level in “Zucker rats”. The “Zucker rat” is a model of impaired glucose tolerance and is widely used to analyze compound effects on glucose tolerance. Animals: Male Zucker rats (HsdOla fa/fa) from Harlan were used in the experiments. The animals were fed commercial lab chow and had unlimited access to tap water throughout the experiment. Experimental protocol: Animals were treated for 3 weeks with either vehicle or the active compounds. Moxonidine was applied via the drinking water. Eprosartan was administered daily into the stomach via a cannula. Ten animals were used in each of the following treatment groups: • Vehicle • Moxonidine 1 mg/kg • Moxonidine 1 mg/kg+Eprosartan 3 mg/kg • Moxonidine 1 mg/kg+Eprosartan 30 mg/kg • Moxonidine 1 mg/kg+Eprosartan 100 mg/kg At the end of the drug treatment period the animals were subjected to an oral glucose tolerance test. Animals were given a solution containing 2 g glucose via a cannula into the stomach. Blood samples were drawn before and at 30, 60, 90, and 120 minutes after the glucose load by tail vein cannulation and analyzed for plasma glucose levels. Statistical analysis: Parameters were expressed as mean±standard error of the mean (SE) and after analysis of variance were compared by means of T-Test.

[1] = system: 2K1C (two-kidney one-clip) hypertensive rats; experiment: Blood pressure and heart rate (tail cuff) of two-kidney one-clip renal hypertensive rats after oral treatment; assay type: in vivo, rat; details: for diastolic blood pressure (DBP) / mean blood pressure (MBP) / systolic blood pressure (SBP) / heart rate: Mox 1 mg/kg, Epro 3 mg/kg or both; for diastolic blood pressure (DBP) / mean blood pressure (MBP) / systolic blood pressure (SBP): mean ± SE of 12 animals; for heart rate: n 12; for maximal decrease in the diastolic blood pressure / maximal decrease in the systolic blood pressure: maximal effect 2 hours after oral administration, moxonidine 1 mg/kg or eprosartan 3 mg/kg; for effect on blood pressure (in words): oral, moxonidine 1 mg/kg, eprosartan 3 mg/kg or both
From the text: The “two-kidney one-clip” technique results in renal ischemia and in the development of hypertension. In the rat, this technique produces chronic changes, similar to those in human beings with unilateral renal artery stenosis. 2K1C rats represent a pressure overload model of hypertension, characterized by the activation of the renin-angiotensin aldosterone system (RAAS) and peripheral vasoconstriction. This model is widely used as a high renin model of hypertension for the evaluation of angiotensin converting enzyme (ACE) inhibitors and angiotensin receptor antagonists (ARBs). Animals: Male Sprague-Dawley CFY rats were used. Animals were fed commercial laboratory rat food pellet and allowed to drink tap water ad libitum throughout the experiments. Two-kidney one-clip hypertension: Under ether anesthesia an incision was made on the right side of the dorsalvertebrocostal angle. After light exterioration of the right kidney a silver clip was placed on the renal artery, close to its origin from the aorta. The left kidney was not disturbed. Measurement of blood pressure and heart rate: Blood pressure and heart rate were measured by the tail cuff method (Model 229, IITC Inc., CA, USA) from the 1st week after clipping the renal artery, once a week for 6 weeks. At the time of blood pressure measurements the animals were minimally warmed to an ambient temperature of 29° C. using a thermostated warming chamber. Experimental protocol: Animals developing stable hypertension during the 6-week-study period were used for the drug treatments. 12 animals with established hypertension were used for each treatment group as follows: • Vehicle • Moxonidine 1 mg/kg • Eprosartan 3 mg/kg • Moxonidine 1 mg/kg+Eprosartan 3 mg/kg The animals were treated orally and the blood pressure was measured 30 min, 1 h, 2 h and 4 hours there after. Different treatments were applied randomly during the day. Statistical analysis: Parameters were expressed as mean±standard error of the mean (SE) and after analysis of variance were compared by means of the modified ‘t’-statistical method of Wallenstein et al. [Wallenstein S et al. (1980) Circ. Res. 47:1-9].

[2] = 30 min after oral administration

Compound	diastolic blood pressure (DBP) [1, 2] [mmHg]	mean blood pressure (MBP) [1, 2] [mmHg]	systolic blood pressure (SBP) [1, 2] [mmHg]	heart rate [1, 2] [beats/min]	diastolic blood pressure (DBP) ([1]; 1 h after oral administration) [mmHg]	mean blood pressure (MBP) ([1]; 1 h after oral administration) [mmHg]	systolic blood pressure (SBP) ([1]; 1 h after oral administration) [mmHg]	heart rate ([1]; 1 h after oral administration) [beats/min]	diastolic blood pressure (DBP) ([1]; 2 h after oral administration) [mmHg]	mean blood pressure (MBP) ([1]; 2 h after oral administration) [mmHg]	systolic blood pressure (SBP) ([1]; 2 h after oral administration) [mmHg]	heart rate ([1]; 2 h after oral administration) [beats/min]	diastolic blood pressure (DBP) ([1]; 4 h after oral administration) [mmHg]	mean blood pressure (MBP) ([1]; 4 h after oral administration) [mmHg]	systolic blood pressure (SBP) ([1]; 4 h after oral administration) [mmHg]	heart rate ([1]; 4 h after oral administration) [beats/min]	maximal decrease in the diastolic blood pressure [1] [%]	maximal decrease in the systolic blood pressure [1] [%]	effect on blood pressure (in words) [1]	further results
COc1nc(C)nc(Cl)c1NC1=NCCN1 [Moxonidine, 4-Chloro-5-[(4,5-dihydro-1H-imidazol-2-yl)-amino]-6-methoxy-2-methylpyrimidine]	118 ± 3.1	124 ± 3.2	136 ± 3.6	383 ± 5.3	110 ± 3.3	117 ± 2.6	130 ± 2.1	376 ± 6.7	100 ± 4.8	107 ± 4.2	122 ± 3.5	368 ± 5.9	109 ± 3.8	116 ± 3.5	129 ± 3.1	384 ± 6.0	19	16	significantly decreased the blood pressure	plasma glucose level (Zucker rats; 0 min (before glucose challenge), 1 mg/kg Mox, mean ± SE of 10 animals): 97 ± 6 mg/dL; plasma glucose AUC (area under the curve) (Zucker rats; 0-120 min after glucose challenge, 1 mg/kg Mox): 24960 ± 1268 mg·min/dL; plasma glucose level (Zucker rats; 30 min after glucose challenge, 1 mg/kg Mox): 240 ± 15 mg/dL; plasma glucose level (Zucker rats; 60 min after glucose challenge, 1 mg/kg Mox): 211 ± 15 mg/dL; plasma glucose level (Zucker rats; 90 min after glucose challenge, 1 mg/kg Mox): 221 ± 11 mg/dL; plasma glucose level (Zucker rats; 120 min after glucose challenge, 1 mg/kg Mox): 224 ± 14 mg/dL; effect on plasma glucose levels after oral glucose challenge (in words) (Zucker rats; Moxonidine 1 mg/kg alone or with Eprosartan 3, 30, 100 mg/kg): significant reduction in plasma glucose levels at 60 and 90 minutes
CCCCc1ncc(/C=C(\Cc2cccs2)C(=O)O)n1Cc1ccc(C(=O)O)cc1 [Eprosartan]	111 ± 2.8	117 ± 2.8	131 ± 2.8	370 ± 6.9	109 ± 2.3	116 ± 2.5	131 ± 3.1	375 ± 7.4	98 ± 4.8	105 ± 4.6	119 ± 4.5	378 ± 4.3	106 ± 6.6	112 ± 6.6	125 ± 6.1	376 ± 5.2	21	19	significantly decreased the blood pressure	
